Assays:
β1-INTEGRIN (ITGB1) = molecular target: T1, β1-INTEGRIN (ITGB1) (Homo sapiens, UniProt P05556); assay: ITGB1 activation and intracellular signaling in hNPCs treated with IKVAV PAs (confocal microscopy, WB); type: cell-based; conditions: for activation of ITGB1 and downstream pathway (ILK, p-FAK/FAK) with Ca2+ added: PA mixed with 5 mM CaCl2; for active ITGB1 and downstream effectors ILK and p-FAK: relative to other IKVAV PAs, IKVAV peptide, laminin or ornithine
T1 construct: endogenous in cells; host or cells: hNPCs differentiated from human embryonic stem cells HUES 64
From the text: Neural progenitor cells (NPCs) were differentiated from human embryonic stem cells HUES 64 (Harvard University) (see FIG. 2C). In short, 70% confluent stem cell cultures grown in Matrigel (Thermo Fisher) coated plates with mTESR medium (STEMCELL Technologies), were switched to N2B27 medium (50% DMEM: F12, 50% Neurobasal, supplemented with NEAA, Glutamax, N2 and B27; Gibco) containing dual SMAD inhibitors (SB431542, DNSK International and LDN-193189, Tocris) for 12 days to induce the generation of neural progenitors. Neuralization was enhanced by supplementing medium with laminin from day 5 to 12. Next, neural rosettes were dissociated with neural rosette selection reagent (STEMCELL Technologies) to obtain NPCs, which are expanded in N2B27 (Gibco) medium supplemented with bFGF (Millipore). For experimentation in the different PA platforms, NPCs were dissociated with Accutase (Innovative Cell technology), and cultured in the distinct platforms with DMEM: F12+N2+B27 medium with hyclone penicillin-streptomycin (GE Healthcare) and ascorbic acid (0.2 μg/mL; Sigma-Aldrich).
For IKVAV PA treatments, hNPCs were cultured on ornithine coatings (German Glass, Chemglass Life Science) in 6 well and 24 well plates at a density of 500,000 cells/well and 80,000 cells/well respectively. hNPCs were treated with […] of IKVAV PAs ([PA]=6 mM, [KCl]=3 mM, [NaCl]=150 mM) or recombinant laminin protein (10 mg/mL) in solution. IKVAV PA2 and IKVAV PA5 were also mixed with 5 mM CaCl2) at a ratio PA:CaCl2) 6:1 to treat hNPCs. For 2D experiments, hNPCs were cultured on the different IKVAV PAs or laminin coatings in 6 well and 24 well plates at densities mentioned above. For co-assembled experiments, hNPCs were cultured on the different co-assembled PA coatings in 6 well and 24 well plates at a density of 400,000 cells/well and 50,000 cells/well respectively.
hNPCs were fed 4 times a week with DMEM: F12+N2^+B27 medium with hyclone penicillin-streptomycin and ascorbic acid. After 24 h, 72 h 1- or 2-weeks in vitro, cell lysates were harvested or fixed for WB or ICC, respectively. Three replicates per condition and at least three independent experiments were carried out for all conditions investigated.
For immunofluorescence, fixed primary cultures or free-floating tissue sections (40 m Thick) were incubated in blocking buffer containing 0.02% Triton-X (Sigma-Aldrich), 1% NHS (Gibco) and PBS 1× (Gibco). Samples were incubated with primary antibodies over night at 4° C. Alexa-488, Alexa-555 and/or Alexa-647 (1:500, Thermofisher) were used as secondary antibodies. DAPI (1:500, Thermofisher) was used to stain nuclei. Finally, the samples were mounted on coverslips with Immu-Mount (Fisher Scientific) solution for imaging.
RIPA buffer (Thermofisher) with a cocktail of Halt Protease and Phosphatase Inhibitors (Thermofisher) was used to extract protein from in vitro and in vivo samples. For in vivo studies, spinal cord tissue was then sonicated using a horn sonicator (Branson) to break up the tissue. A Pierce™ BCA Protein Assay Kit (Thermofisher) was used to determine protein content for all samples used. Protein extracts obtained from cell cultures or tissue were separated using an SDS-polyacrylamide gel and electro-transferred to a nitrocellulose membrane (Bio-Rad). Membranes were blocked for 30 minutes to 1 hour using a 5% milk solution (Bio-Rad) and incubated over night with primary antibodies. Corresponding secondary HRP-conjugated antibodies (1:1000, ThermoFisher) were used for 1 h at room temperature. Radiance Bioluminescent ECL substrate (Azure Biosystems) was used to detect protein signal. The membranes were imaged using the Azure Biosystems imager and densitometry analysis were performed using ImageJ software.

[1] = Miscibility and hydrogel formation of IKVAV PA / FGF2 PA binary systems (cryo-TEM, rheology); type: physicochemical; conditions: particularly at molar ratio 90:10
Procedure: For in vitro experiments: After lyophilization, PA powder was reconstituted in 150 mM NaCl and 3 mM KCl solution and adjusted to a pH of 7.4 using 1 μL additions of 1 M NaOH to ensure cell compatibility and material consistency. Different bioactive PAs were mixed at different mol % (see Table 3) and horn sonicated at 10% intensity, three times for 10 seconds. PA solutions were annealed at 80° C. for 30 min and then slowly cooled at 1° C. per minute to reach a final temperature of 27° C. using a thermocycler (Eppendorf PCR Thermocycler) for even and controlled heating and cooling of all samples. To prepare a PA coated substrate, 24-, 12-, or 6-well polystyrene cell culture plate or 12 mm and 18 mm glass coverslips (German Glass, Chemglass Life Science) were coated with poly-D-lysine (0.01 mg/mL, Sigma-Aldrich) for 3 h at 37° C. The plates were then rinsed with MilliQ water three times and allowed to dry for 4 h. PAs were painted on the coverslips or tissue culture plates by dragging a pipette (8-30 μL of annealed PAs (1 wt %)) to extrude a thin, even coating of material across the surface. PA coatings were incubated for 3 h at room temperature. The plates were gently rinsed with media before further use. For dye-labeled PAs experiments, Cy3-labeled-FGF2 PAs were co-assembled at 1 mol % with their corresponding non-labeled PA counterparts (see table 3).
Plunge-freezing for Cryo-TEM samples were prepared using a FEI model Vitrobot MarkIV (FEI). 7 μL of the sample solution ([PA]=0.05-0.1 wt % in H2O) was deposited on a plasma-cleaned TEM grid (300 mesh copper with lacey carbon, Electron Microscopy Sciences) and held in place with tweezers mounted on the Vitrobot. The specimen was blotted in an environment with 100% humidity at room temperature (blot force: 3, blot total: 1-2, wait time: 0.5-1 s, blot time: 3 s, drain time: 0-1 s), and plunged into a liquid ethane reservoir cooled by liquid nitrogen. The vitrified samples were stored in liquid nitrogen and then transferred to a Gatan 626 Cryo-TEM holder. Cryo-TEM images were obtained using a JEOL1230 electron microscope operating with a LaB6 filament at an accelerating voltage of 100 kV, equipped with a Gatan 831 CCD camera.
PA materials were prepared using the method described above for in vitro studies. An MCR302 Rheometer (Anton Paar) was used for all rheological studies. The instrument stage was set to 37° C. to simulate in vitro and in vivo conditions. The PA solution (150 μL) was placed on the sample stage and 30 μL of 25 mM CaCl2) solution was pipetted onto the underside of a 25 mm cone plate positioned above the material. […] The storage and loss modulus (G′ and G″) were recorded after a plateau occurred.

T1 sequence (P05556 21-798): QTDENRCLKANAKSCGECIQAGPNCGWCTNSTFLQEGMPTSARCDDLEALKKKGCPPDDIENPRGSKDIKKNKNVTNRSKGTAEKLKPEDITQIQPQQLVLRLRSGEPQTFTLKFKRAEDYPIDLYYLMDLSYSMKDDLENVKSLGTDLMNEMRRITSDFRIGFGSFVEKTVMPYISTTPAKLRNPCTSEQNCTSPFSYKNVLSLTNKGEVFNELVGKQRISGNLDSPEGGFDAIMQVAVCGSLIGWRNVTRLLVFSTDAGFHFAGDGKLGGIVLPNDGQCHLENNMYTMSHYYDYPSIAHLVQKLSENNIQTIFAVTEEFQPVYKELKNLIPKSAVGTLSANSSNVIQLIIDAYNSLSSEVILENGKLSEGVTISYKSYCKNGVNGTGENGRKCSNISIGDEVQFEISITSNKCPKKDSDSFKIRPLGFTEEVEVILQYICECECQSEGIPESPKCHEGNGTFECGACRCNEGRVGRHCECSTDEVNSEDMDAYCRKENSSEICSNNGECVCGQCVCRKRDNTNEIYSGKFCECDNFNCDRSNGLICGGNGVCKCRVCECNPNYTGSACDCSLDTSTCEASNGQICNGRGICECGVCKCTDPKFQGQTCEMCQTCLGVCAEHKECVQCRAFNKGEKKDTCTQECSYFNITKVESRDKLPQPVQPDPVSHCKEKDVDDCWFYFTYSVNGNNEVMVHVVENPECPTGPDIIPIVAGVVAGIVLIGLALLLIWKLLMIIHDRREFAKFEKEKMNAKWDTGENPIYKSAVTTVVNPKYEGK

Substance | activation of ITGB1 and downstream pathway (ILK, p-FAK/FAK) with Ca2+ added (β1-INTEGRIN (ITGB1)) | active ITGB1 and downstream effectors ILK and p-FAK (β1-INTEGRIN (ITGB1)) | miscibility and hydrogel formation when mixed with FGF2 PA1 or FGF2 PA2 [1] | in vitro bioactivity (summary) (β1-INTEGRIN (ITGB1))
C16-A2G2E4GIKVAV [IKVAV PA2] | decreased | substantially higher | both miscible and could form hydrogels with similar mechanical properties | –
C16-G4E4GIKVAV [IKVAV PA5] | decreased | substantially higher | immiscibility | –
C16-VAG2E4GIKVAV [IKVAV PA4] | – | intermediate level of activation | immiscibility | low level of in vitro bioactivity
C16-V2A2E4GIKVAV [IKVAV PA1] | – | – | immiscibility | low level of in vitro bioactivity

Reference: patent publication US20240325548A1, “DYNAMIC BIOACTIVE SCAFFOLDS AND THERAPEUTIC USES THEREOF AFTER CNS INJURY” (Northwestern University, priority 2021, published 2024)
